# Source: PubChem BioAssay AID2060904 (Molecular Pharmacology Branch, DTP, NCI, 2025)
# System: 349418-098-R-PDC complex spheroid viability
# Assay: Anticancer human tumor 349418-098-R-PDC patient-derived lung adenocarcinoma cell line growth inhibition [RAS]
# Details: for IC50: curve of first compound; for viability, T/C: stronger effect = lower value
# In short: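 Tumour cells grown as complex spheroids with HUVEC endothelial cells and mesenchymal stem cells, treated with RAS pathway inhibitor combinations. Each agent spans half-log steps from near clinical Cmax, or 10 microM where Cmax is unknown.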
# [1] = second compound 0.0316 µM, first compound 0.0316 µM
# [2] = second compound 0.0316 µM, first compound 0.1 µM
# [3] = second compound 0.0316 µM, first compound 0.316 µM
# [4] = second compound 0.0316 µM, first compound 1 µM
# [5] = second compound 0.0316 µM, first compound 3.16 µM
# [6] = second compound 0.0316 µM, first compound 10 µM
# [7] = second compound 0.1 µM, first compound 0.0316 µM
# [8] = second compound 0.1 µM, first compound 0.1 µM
# [9] = second compound 0.1 µM, first compound 0.316 µM
# [10] = second compound 0.1 µM, first compound 1 µM
# [11] = second compound 0.1 µM, first compound 3.16 µM
# [12] = second compound 0.1 µM, first compound 10 µM
# [13] = second compound 0.316 µM, first compound 0.0316 µM
# [14] = second compound 0.316 µM, first compound 0.1 µM
# [15] = second compound 0.316 µM, first compound 0.316 µM
# [16] = second compound 0.316 µM, first compound 1 µM
# [17] = second compound 0.316 µM, first compound 3.16 µM
# [18] = second compound 0.316 µM, first compound 10 µM
# [19] = second compound 1 µM, first compound 0.0316 µM
# [20] = second compound 1 µM, first compound 0.1 µM
# [21] = second compound 1 µM, first compound 0.316 µM
# [22] = second compound 1 µM, first compound 1 µM
# [23] = second compound 1 µM, first compound 3.16 µM
# [24] = second compound 1 µM, first compound 10 µM
# [25] = second compound 3.16 µM, first compound 0.0316 µM
# [26] = second compound 3.16 µM, first compound 0.1 µM
# [27] = second compound 3.16 µM, first compound 0.316 µM
# [28] = second compound 3.16 µM, first compound 1 µM
# [29] = second compound 3.16 µM, first compound 3.16 µM
# [30] = second compound 3.16 µM, first compound 10 µM
# [31] = second compound 10 µM, first compound 0.0316 µM
# [32] = second compound 10 µM, first compound 0.1 µM
# [33] = second compound 10 µM, first compound 0.316 µM
# [34] = second compound 10 µM, first compound 1 µM
# [35] = second compound 10 µM, first compound 3.16 µM
# [36] = second compound 10 µM, first compound 10 µM
# 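Also: spheroids exposed to compound for seven days before viability readout.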
structure (smiles),measurement,setting,value
CCC(CC)c1cc(NC2CCC(N)C2)n2nccc2n1 (stereo not drawn) + C#Cc1c(F)ccc2cc(O)cc(-c3ncc4c(N5CC6CCC(C5)N6)nc(OCC56CCCN5CC(F)C6)nc4c3F)c12,IC50,second compound 0.0316 µM,736 nM
same,IC50,second compound 0.1 µM,810 nM
same,IC50,second compound 0.316 µM,903 nM
same,IC50,second compound 1 µM,875 nM
same,IC50,second compound 3.16 µM,714 nM
same,IC50,second compound 10 µM,< 31.6 nM
same,"viability, T/C",[1],91.3%
same,"viability, T/C",[2],106%
same,"viability, T/C",[3],76.1%
same,"viability, T/C",[4],41.9%
same,"viability, T/C",[5],3.06%
same,"viability, T/C",[6],2.85%
same,"viability, T/C",[7],84.2%
same,"viability, T/C",[8],107%
same,"viability, T/C",[9],84.5%
same,"viability, T/C",[10],42.6%
same,"viability, T/C",[11],2.89%
same,"viability, T/C",[12],2.86%
same,"viability, T/C",[13],91.3%
same,"viability, T/C",[14],112%
same,"viability, T/C",[15],106%
same,"viability, T/C",[16],44.8%
same,"viability, T/C",[17],4.03%
same,"viability, T/C",[18],2.72%
same,"viability, T/C",[19],75.8%
same,"viability, T/C",[20],85.6%
same,"viability, T/C",[21],67.2%
same,"viability, T/C",[22],48.9%
same,"viability, T/C",[23],3.08%
same,"viability, T/C",[24],3.26%
same,"viability, T/C",[25],75%
same,"viability, T/C",[26],97.5%
same,"viability, T/C",[27],83.2%
same,"viability, T/C",[28],36.1%
same,"viability, T/C",[29],3.69%
same,"viability, T/C",[30],3.11%
same,"viability, T/C",[31],52.5%
same,"viability, T/C",[32],44.7%
same,"viability, T/C",[33],42.7%
same,"viability, T/C",[34],20.4%
same,"viability, T/C",[35],1.26%
same,"viability, T/C",[36],0.7%
CC(=O)OC12COC1CC(O)C1(C)C(=O)C(O)C3=C(C)C(OC(=O)C(O)C(NC(=O)OC(C)(C)C)c4ccccc4)CC(O)(C(OC(=O)c4ccccc4)C21)C3(C)C (stereo not drawn) + CCn1c(-c2cccnc2C(C)OC)c2c3cc(ccc31)N1CCOC(CC(NC(=O)C(C(C)C)N(C)C(=O)C3(F)CCN(C(=O)C#CC(C)(C)N(C)C)CC3)C(=O)N3CCCC(N3)C(=O)OCC(C)(C)C2)C1,IC50,second compound 0.000949 µM,< 31.6 nM
same,IC50,second compound 0.003 µM,< 31.6 nM
same,IC50,second compound 0.00949 µM,< 31.6 nM
same,IC50,second compound 0.03 µM,< 31.6 nM
same,IC50,second compound 0.0949 µM,< 31.6 nM
same,IC50,second compound 0.3 µM,< 31.6 nM
same,"viability, T/C","second compound 0.000949 µM, first compound 0.0316 µM",13.4%
same,"viability, T/C","second compound 0.000949 µM, first compound 0.1 µM",13%
same,"viability, T/C","second compound 0.000949 µM, first compound 0.316 µM",15.4%
same,"viability, T/C","second compound 0.000949 µM, first compound 1 µM",16.4%
same,"viability, T/C","second compound 0.000949 µM, first compound 3.16 µM",15.6%
same,"viability, T/C","second compound 0.000949 µM, first compound 10 µM",17.3%
same,"viability, T/C","second compound 0.003 µM, first compound 0.0316 µM",13.8%
same,"viability, T/C","second compound 0.003 µM, first compound 0.1 µM",13.9%
same,"viability, T/C","second compound 0.003 µM, first compound 0.316 µM",10.9%
same,"viability, T/C","second compound 0.003 µM, first compound 1 µM",13.8%
same,"viability, T/C","second compound 0.003 µM, first compound 3.16 µM",16.8%
same,"viability, T/C","second compound 0.003 µM, first compound 10 µM",16.9%
same,"viability, T/C","second compound 0.00949 µM, first compound 0.0316 µM",13.2%
same,"viability, T/C","second compound 0.00949 µM, first compound 0.1 µM",13.6%
same,"viability, T/C","second compound 0.00949 µM, first compound 0.316 µM",10.2%
same,"viability, T/C","second compound 0.00949 µM, first compound 1 µM",13.5%
same,"viability, T/C","second compound 0.00949 µM, first compound 3.16 µM",17.4%
same,"viability, T/C","second compound 0.00949 µM, first compound 10 µM",15.9%
same,"viability, T/C","second compound 0.03 µM, first compound 0.0316 µM",12.6%
same,"viability, T/C","second compound 0.03 µM, first compound 0.1 µM",13.3%
same,"viability, T/C","second compound 0.03 µM, first compound 0.316 µM",16.2%
same,"viability, T/C","second compound 0.03 µM, first compound 1 µM",16.2%
same,"viability, T/C","second compound 0.03 µM, first compound 3.16 µM",17.4%
same,"viability, T/C","second compound 0.03 µM, first compound 10 µM",12.6%
same,"viability, T/C","second compound 0.0949 µM, first compound 0.0316 µM",12.2%
same,"viability, T/C","second compound 0.0949 µM, first compound 0.1 µM",13.3%
same,"viability, T/C","second compound 0.0949 µM, first compound 0.316 µM",15.7%
same,"viability, T/C","second compound 0.0949 µM, first compound 1 µM",15.9%
same,"viability, T/C","second compound 0.0949 µM, first compound 3.16 µM",16.9%
same,"viability, T/C","second compound 0.0949 µM, first compound 10 µM",16.8%
same,"viability, T/C","second compound 0.3 µM, first compound 0.0316 µM",13%
same,"viability, T/C","second compound 0.3 µM, first compound 0.1 µM",13.2%
same,"viability, T/C","second compound 0.3 µM, first compound 0.316 µM",14.7%
same,"viability, T/C","second compound 0.3 µM, first compound 1 µM",15%
same,"viability, T/C","second compound 0.3 µM, first compound 3.16 µM",19.1%
same,"viability, T/C","second compound 0.3 µM, first compound 10 µM",21.1%
Cc1nc(N2CCC3(CC2)COC(C)C3N)c(CO)nc1Sc1ccnc(N)c1Cl (stereo not drawn) + C#Cc1c(F)ccc2cc(O)cc(-c3ncc4c(N5CC6CCC(C5)N6)nc(OCC56CCCN5CC(F)C6)nc4c3F)c12,IC50,second compound 0.0316 µM,> 10000 nM
same,IC50,second compound 0.1 µM,> 10000 nM
same,IC50,second compound 0.316 µM,> 10000 nM
same,IC50,second compound 1 µM,> 10000 nM
same,IC50,second compound 3.16 µM,> 10000 nM
same,IC50,second compound 10 µM,> 10000 nM
same,"viability, T/C",[1],102%
same,"viability, T/C",[2],108%
same,"viability, T/C",[3],105%
same,"viability, T/C",[4],63.1%
same,"viability, T/C",[5],86%
same,"viability, T/C",[6],71.2%
same,"viability, T/C",[7],112%
same,"viability, T/C",[8],90.8%
same,"viability, T/C",[9],98.2%
same,"viability, T/C",[10],88.8%
same,"viability, T/C",[11],108%
same,"viability, T/C",[12],86%
same,"viability, T/C",[13],94.3%
same,"viability, T/C",[14],88%
same,"viability, T/C",[15],101%
same,"viability, T/C",[16],104%
same,"viability, T/C",[17],104%
same,"viability, T/C",[18],67.3%
same,"viability, T/C",[19],89.4%
same,"viability, T/C",[20],94.6%
same,"viability, T/C",[21],87%
same,"viability, T/C",[22],83.2%
same,"viability, T/C",[23],111%
same,"viability, T/C",[24],71.9%
same,"viability, T/C",[25],59.6%
same,"viability, T/C",[26],108%
same,"viability, T/C",[27],101%
same,"viability, T/C",[28],62.2%
same,"viability, T/C",[29],114%
same,"viability, T/C",[30],80.3%
same,"viability, T/C",[31],75.4%
same,"viability, T/C",[32],43.9%
same,"viability, T/C",[33],70.3%
same,"viability, T/C",[34],74.1%
same,"viability, T/C",[35],73%
same,"viability, T/C",[36],77%
Nc1ccn(C2OC(CO)C(O)C2(F)F)c(=O)n1 (stereo not drawn) + C#Cc1c(F)ccc2cc(O)cc(-c3ncc4c(N5CC6CCC(C5)N6)nc(OCC56CCCN5CC(F)C6)nc4c3F)c12,IC50,second compound 0.0316 µM,< 3.16 nM
same,IC50,second compound 0.1 µM,< 3.16 nM
same,IC50,second compound 0.316 µM,< 3.16 nM
same,IC50,second compound 1 µM,< 3.16 nM
same,IC50,second compound 3.16 µM,< 3.16 nM
same,IC50,second compound 10 µM,< 3.16 nM
same,"viability, T/C","second compound 0.0316 µM, first compound 0.00316 µM",22.7%
same,"viability, T/C","second compound 0.0316 µM, first compound 0.01 µM",7.34%
same,"viability, T/C",[1],6.68%
same,"viability, T/C",[2],6.34%
same,"viability, T/C",[3],4.77%
same,"viability, T/C",[4],5.69%
same,"viability, T/C","second compound 0.1 µM, first compound 0.00316 µM",22.5%
same,"viability, T/C","second compound 0.1 µM, first compound 0.01 µM",6.75%
same,"viability, T/C",[7],6.72%
same,"viability, T/C",[8],5.71%
same,"viability, T/C",[9],5.49%
same,"viability, T/C",[10],4.87%
same,"viability, T/C","second compound 0.316 µM, first compound 0.00316 µM",22.3%
same,"viability, T/C","second compound 0.316 µM, first compound 0.01 µM",7.7%
same,"viability, T/C",[13],6.8%
same,"viability, T/C",[14],6.21%
same,"viability, T/C",[15],6.34%
same,"viability, T/C",[16],5.58%
same,"viability, T/C","second compound 1 µM, first compound 0.00316 µM",21.2%
same,"viability, T/C","second compound 1 µM, first compound 0.01 µM",7.84%
same,"viability, T/C",[19],5.78%
same,"viability, T/C",[20],6.95%
same,"viability, T/C",[21],6.05%
same,"viability, T/C",[22],5.2%
same,"viability, T/C","second compound 3.16 µM, first compound 0.00316 µM",18.1%
same,"viability, T/C","second compound 3.16 µM, first compound 0.01 µM",9.18%
same,"viability, T/C",[25],6.71%
same,"viability, T/C",[26],7.51%
same,"viability, T/C",[27],7.89%
same,"viability, T/C",[28],6.18%
same,"viability, T/C","second compound 10 µM, first compound 0.00316 µM",16%
same,"viability, T/C","second compound 10 µM, first compound 0.01 µM",3.49%
same,"viability, T/C",[31],5.23%
same,"viability, T/C",[32],3.11%
same,"viability, T/C",[33],5.48%
same,"viability, T/C",[34],4.28%
